25 molecules from patent US6855843B2, “Inhibitors of α4 mediated cell adhesion” (Tanabe Seiyaku Co., Ltd., priority 1998, dated 2005) can be followed below.

Some results are limits rather than exact numbers.

Data set [1] concerns the target T1, α4β7 (adhesion of RPMI cells to CS-1) (Homo sapiens, UniProt P13612+P26010).
T1 construct: endogenous in cells
T1 sequence (P13612 34-1032): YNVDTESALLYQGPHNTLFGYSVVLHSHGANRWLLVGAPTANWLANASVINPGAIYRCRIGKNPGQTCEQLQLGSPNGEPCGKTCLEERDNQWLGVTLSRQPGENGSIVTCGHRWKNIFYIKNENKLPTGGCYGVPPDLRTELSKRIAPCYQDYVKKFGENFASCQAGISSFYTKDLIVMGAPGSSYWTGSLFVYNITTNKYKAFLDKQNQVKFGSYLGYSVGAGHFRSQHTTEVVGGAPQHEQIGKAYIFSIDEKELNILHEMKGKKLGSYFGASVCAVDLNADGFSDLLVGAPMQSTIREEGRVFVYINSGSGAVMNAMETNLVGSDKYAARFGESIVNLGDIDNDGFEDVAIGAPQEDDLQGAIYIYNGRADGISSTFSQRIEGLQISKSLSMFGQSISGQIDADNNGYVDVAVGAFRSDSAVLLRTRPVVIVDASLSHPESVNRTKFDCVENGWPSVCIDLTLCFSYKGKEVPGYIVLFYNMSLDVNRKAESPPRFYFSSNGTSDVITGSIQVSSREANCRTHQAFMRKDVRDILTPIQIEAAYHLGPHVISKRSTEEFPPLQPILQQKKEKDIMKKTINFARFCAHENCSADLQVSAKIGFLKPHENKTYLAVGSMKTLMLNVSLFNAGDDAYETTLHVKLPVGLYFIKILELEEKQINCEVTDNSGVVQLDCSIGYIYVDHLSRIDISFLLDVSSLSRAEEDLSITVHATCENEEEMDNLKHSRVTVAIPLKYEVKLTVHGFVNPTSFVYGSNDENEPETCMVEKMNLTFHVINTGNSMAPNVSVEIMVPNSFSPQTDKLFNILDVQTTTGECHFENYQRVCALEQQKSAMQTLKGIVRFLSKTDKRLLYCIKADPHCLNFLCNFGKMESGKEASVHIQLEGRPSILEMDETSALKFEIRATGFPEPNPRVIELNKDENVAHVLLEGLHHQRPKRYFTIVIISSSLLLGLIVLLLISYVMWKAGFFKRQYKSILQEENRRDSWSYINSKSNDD
T1 sequence (P26010 20-798): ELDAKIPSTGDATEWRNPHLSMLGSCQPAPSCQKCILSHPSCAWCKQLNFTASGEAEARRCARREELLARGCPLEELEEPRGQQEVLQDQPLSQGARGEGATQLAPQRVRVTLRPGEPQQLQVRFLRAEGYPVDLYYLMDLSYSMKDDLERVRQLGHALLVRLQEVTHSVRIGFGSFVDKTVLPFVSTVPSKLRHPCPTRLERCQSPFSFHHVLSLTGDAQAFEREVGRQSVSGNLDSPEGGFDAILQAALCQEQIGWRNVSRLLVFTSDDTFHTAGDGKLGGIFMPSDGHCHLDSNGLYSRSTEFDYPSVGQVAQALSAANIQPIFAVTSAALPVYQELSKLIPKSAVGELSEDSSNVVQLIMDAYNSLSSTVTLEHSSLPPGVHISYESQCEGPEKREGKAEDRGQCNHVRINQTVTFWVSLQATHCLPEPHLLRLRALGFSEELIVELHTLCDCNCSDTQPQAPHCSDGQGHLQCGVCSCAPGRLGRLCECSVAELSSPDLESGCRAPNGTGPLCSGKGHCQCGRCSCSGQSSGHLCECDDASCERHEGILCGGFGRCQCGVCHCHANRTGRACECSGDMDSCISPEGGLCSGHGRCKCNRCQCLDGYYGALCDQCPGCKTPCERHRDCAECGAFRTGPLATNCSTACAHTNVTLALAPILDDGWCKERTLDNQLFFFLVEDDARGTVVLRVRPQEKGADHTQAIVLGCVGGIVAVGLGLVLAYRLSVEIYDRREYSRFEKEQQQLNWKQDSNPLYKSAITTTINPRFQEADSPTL
Put plainly: RPMI-CS-1 cell adhesion assay. In kind it is cell-based. The conditions noted are these: adhesion of RPMI B-cell line (expresses α4β7) to CS-1 peptide coated microwells; read-out: RPMI-CS-1 IC50 value range.

In the case of `CCc1cc(C[C@H](NC(=O)c2c(Cl)cccc2Cl)C(=O)O)ccc1-c1ccccc1OC` [Example 296, N-(2,6-Dichlorobenzoyl)-3-ethyl-4-(2-methoxyphenyl)-L-phenylalanine], the melting point (in general, the temperature, or range, at which the solid turns liquid) was 105 to 107 °C. For the same molecule, the IC50 (in general, the concentration that inhibits the measured activity by half) in data set [1] is below 0.3 µM.

In turn, `COc1cccc(OC)c1-c1ccc(C[C@H](NC(=O)c2c(Cl)cc(-c3nccs3)cc2Cl)C(=O)O)cc1` [Example 306, N-[4-(1,3-thiazol-2-yl)-2,6-dichlorobenzoyl]-4-(2,6-dimethoxyphenyl)-L-phenylalanine] returned a melting point of 141.9 °C. Moreover, the IC50 in data set [1] was below 0.3 µM.

`COc1cc(C(=O)NCCN2CCOCC2)cc(OC)c1-c1ccc(C[C@H](NC(=O)c2c(Cl)cccc2Cl)C(=O)O)cc1` [Example 171] yielded a melting point of 268 to 269 °C. Further, in data set [1], the IC50 was below 0.3 µM.

`COc1cccc(OC)c1-c1ccc(C[C@H](NC(=O)c2c(Cl)cc(-c3cnccn3)cc2Cl)C(=O)O)cc1` [Example 308, N-[4-(2-Pyrazinyl)-2,6-dichlorobenzoyl]-4-(2,6-dimethoxyphenyl)-L-phenylalanine] registered a melting point of 145.7 °C. The IC50 in data set [1] is below 0.3 µM.

In turn, `COc1cc(CCN2CCN(C)CC2)cc(OC)c1-c1ccc(C[C@H](NC(=O)c2c(Cl)cccc2Cl)C(=O)O)cc1` [Example 264, N-(2,6-Dichlorobenzoyl)-4-[2,6-dimethoxy-4-[2-(4-methyl-1-piperazinyl)ethyl]phenyl]-L-phenylalanine] returned a melting point of 178.9 °C. For the same molecule, in data set [1], the IC50 was below 0.3 µM.

`COc1cccc(OC)c1-c1ccc(C[C@H](NC(=O)c2c(Cl)cc(NC(N)=O)cc2Cl)C(=O)O)cc1` [Example 204] gave a melting point of 220 to 221 °C. Further, the IC50 in data set [1] was below 0.3 µM.

In turn, `COc1cc(NC(C)=O)cc(OC)c1-c1ccc(C[C@H](NC(=O)c2c(Cl)cccc2Cl)C(=O)O)cc1` [Example 159, N-(2,6-Dichlorobenzoyl)-4-(4-acetylamino-2,6-dimethoxyphenyl)-L-phenylalanine] returned a melting point of 243 to 244 °C. Further, the IC50 in data set [1] is below 0.3 µM.

As for `COc1cc(CCN2CCCCC2)cc(OC)c1-c1ccc(C[C@H](NC(=O)c2c(Cl)cccc2Cl)C(=O)O)cc1` [Example 265, N-(2,6-Dichlorobenzoyl)-4-[2,6-dimethoxy-4-(2-piperidinoethyl)phenyl]-L-phenylalanine], the melting point is 194.9 °C. Further, the IC50 in data set [1] is below 0.3 µM.

With `COc1cccc(OC)c1-c1ccc(C[C@H](NC(=O)c2c(Cl)cccc2Cl)C(=O)O)cc1NC(C)=O` [Example 297, N-(2,6-Dichlorobenzoyl)-4-(2,6-dimethoxyphenyl)-3-acetylamino-L-phenylalanine], the melting point fell in the range of 142 to 144 °C. In data set [1], the IC50 is below 0.3 µM.

Turning to `COc1cccc(OC)c1-c1ccc(C[C@H](NC(=O)c2c(Cl)ccc(Br)c2Cl)C(=O)O)cc1` [Example 331, N-(2,6-Dichloro-3-bromobenzoyl)-4-(2,6-dimethoxyphenyl)-L-phenylalanine], the melting point was 234.8 °C. In addition, the IC50 in data set [1] is below 0.3 µM.

In turn, `COc1cc(CN2CC[S+]([O-])CC2)cc(OC)c1-c1ccc(C[C@H](NC(=O)c2c(Cl)cccc2Cl)C(=O)O)cc1` [Example 263B, N-(2,6-Dichlorobenzoyl)-4-[2,6-dimethoxy-4-(thiomorpholinomethyl)phenyl]-L-phenylalanine S-oxide] came in with a melting point of 162.8 °C. In data set [1], the IC50 is below 0.3 µM.

`COc1ccc(C(N)=O)c(OC)c1-c1ccc(C[C@H](NC(=O)c2c(Cl)cccc2Cl)C(=O)O)cc1` [Example 326, N-(2,6-Dichlorobenzoyl)-4-(2,6-dimethoxy-3-carbamoylphenyl)-L-phenylalanine] yielded a melting point of 227 to 228 °C. The IC50 in data set [1] was below 0.3 µM.

The molecule `O=C(N[C@@H](Cc1ccc(-c2cccc3c2OCCC3)cc1)C(=O)O)c1c(Cl)cccc1Cl` [Example 328] came in with a melting point of 214 to 215 °C. Besides, the IC50 in data set [1] is below 0.3 µM.

As for `COc1cc(C(=O)NS(C)(=O)=O)cc(OC)c1-c1ccc(C[C@H](NC(=O)c2c(Cl)cccc2Cl)C(=O)O)cc1` [Example 173, N-(2,6-Dichlorobenzoyl)-4-[4-(methanesulfonylamino)carbonyl-2,6-dimethoxyphenyl]-L-phenylalanine], the melting point is 277 to 278 °C. Besides, the IC50 in data set [1] was below 0.3 µM.

The molecule `COc1cccc(OC)c1-c1ccc(C[C@H](NC(=S)c2c(Cl)cccc2Cl)C(=O)O)cc1` [Example 266, N-(2,6-Dichlorothiobenzoyl)-4-(2,6-dimethoxyphenyl)-L-phenylalanine] returned a melting point of 180.4 °C. Further, the IC50 in data set [1] was below 0.3 µM.

As for `CCOC(=O)[C@H](Cc1ccc(-c2c(OC)cc(CN3CCCCC3)cc2OC)cc1)NC(=O)c1c(F)cccc1F` [Example 354], the melting point stood at 150 °C. For the same molecule, the IC50 in data set [1] was below 0.3 µM.

On to `CC(O)c1cc(C[C@H](NC(=O)c2c(Cl)cccc2Cl)C(=O)O)ccc1-c1ccccc1` (stereo partly drawn) [Example 74, N-(2,6-Dichlorobenzoyl)-3-(1-hydroxyethyl)-4-phenyl-L-phenylalanine], for which the melting point was in the range of 115 to 117 °C. In addition, in data set [1], the IC50 fell in the range of 0.3 to 1 µM.

For the molecule `COc1cccc(OC)c1-c1ccc(C[C@H](NC(=O)c2c(Cl)cc(Br)cc2Cl)C(=O)O)cc1` [Example 207], the melting point lay in the range of 184 to 185 °C. In addition, the IC50 in data set [1] was below 0.3 µM.

In turn, `COc1cccc(OC)c1-c1ccc(C[C@H](NC(=O)c2c(Cl)cc(-c3cscn3)cc2Cl)C(=O)O)cc1` [Example 307, N-[4-(1,3-Thiazol-4-yl)-2,6-dichlorobenzoyl]-4-(2,6-dimethoxyphenyl)-L-phenylalanine] came in with a melting point of 186.5 °C. For the same molecule, the IC50 in data set [1] is below 0.3 µM.

`COc1cc(C(=O)NC(C)C)cc(OC)c1-c1ccc(C[C@H](NC(=O)c2c(Cl)cccc2Cl)C(=O)O)cc1` [Example 168] registered a melting point of 261 to 262 °C. Also, the IC50 in data set [1] is below 0.3 µM.

On to `COc1cccc(OC)c1-c1ccc(C[C@H](NC(=O)c2c(Cl)cc(O)cc2Cl)C(=O)O)cc1` [Example 208], for which the melting point was 252 to 253 °C. Further, the IC50 in data set [1] is below 0.3 µM.

Molecule `COc1cccc(OCCO)c1-c1ccc(C[C@H](NC(=O)c2c(Cl)cccc2Cl)C(=O)O)cc1` [Example 227, N-(2,6-Dichlorobenzoyl)-4-[6-methoxy-2-(2-hydroxyethoxy)phenyl]-L-phenylalanine] showed a melting point of 158 to 159 °C. The IC50 in data set [1] is below 0.3 µM.

Molecule `COc1cc(N)cc(OC)c1-c1ccc(C[C@H](NC(=O)c2c(Cl)cccc2Cl)C(=O)O)cc1` [Example 157, N-(2,6-Dichlorobenzoyl)-4-(4-amino-2,6-dimethoxyphenyl)-L-phenylalanine] displayed a melting point of 221 to 222 °C. Moreover, in data set [1], the IC50 is below 0.3 µM.

As for `COc1cccc(OC)c1-c1ccc(C[C@H](NC(=O)c2c(Cl)cc(N)cc2Cl)C(=O)O)cc1` [Example 206, N-(4-Amino-2,6-dichlorobenzoyl)-4-(2,6-dimethoxyphenyl)-L-phenylalanine], the melting point is 221 to 222 °C (dec.). For the same molecule, the IC50 in data set [1] was below 0.3 µM.

Molecule `Cc1cccc(C)c1-c1ccc(C[C@H](NC(=O)c2c(Cl)cccc2Cl)C(=O)O)cc1` [Example 145] returned a melting point of 200 to 201 °C. In addition, the IC50 in data set [1] is 1 to 5 µM.
